Results published in patent US12582721B2, “Molybdenum-based feed supplement for bees” (UNIVERSITE DE VERSAILLES—SAINT-QUENTIN-EN-YVELINES, priority 2020, dated 2026).

Columns and labels:
Varroa destructor [1] = assay: 1st test in hives: degree of infestation with Varroa; format: in vivo; settings: for Degree of infestation with Varroa / Degree of infestation with Varroa, change versus batch I: overall dose 2 mg per colony; for Degree of infestation with Varroa: 100 = 1.78 mite/10 g of bees; for Degree of infestation with Varroa, change versus batch I: value in brackets
Experimental: Biological field tests were performed on families of European domestic bees of the species Apis mellifera […] experimental apiary located in the […] forestry district (Republic of Moldova). Feeding with the complex of the invention took place in spring. The biological tests were monitored up to the month of September. To administer the compounds to the bees, a very small amount of bioactive substance was added to two types of sugary feeding products for bees: candy in the form of a paste (70% sucrose, 30% honey) or syrup (50% sucrose, 50% water). The bees were fed by adding the candy/syrup to the feeder located in the inner upper part of the hive. The volume of syrup was adjusted based on the number of bee frames at the initial time, more precisely 200 g of candy per frame and 100 mL of syrup per frame, that is 2 kg of candy and 1 L of syrup per hive of 10 frames. For the first feeding step, candy in the form of a paste was only given once. […] From the start of the test to the end (after the second harvest), all the bees were monitored for several key morpho-producing parameters that reflect the development level of the colony and the vital aspects of the bees. The parameters studied are: the prolificity of the queen (fertility), the power of the colonies, the production of honey and the production of wax. These parameters were monitored in line with the zootechnical standards concerning the assessment of bee families, breeding and certification of beekeeping parental material approved by government decision No. 306 dated Apr. 28, 2011 of the Republic of Moldova. The assessment consists in counting the number of Varroa on a sample of adult bees. The value from this count is used as an index for monitoring the level of parasitism in the colony. The method uses icing sugar and a “shaker” jar made of transparent glass with a capacity of 1 kg. The cover is a mesh made of galvanized steel of the type placed at the bottom of the hive, with a mesh size of 3 mm. The mesh allows Varroa mites to pass through but retains the honey bees. The method is implemented according to the following steps: 40 to 50 g of honey bees are collected in the jar (approximately 400 bees), 100 g of icing sugar is added and the shaker jar is rolled for 1 minute so as to cover every bee in icing sugar. The icing sugar then makes it possible to separate the Varroa mites from the body of the host bee so that they drop off. Leave to rest for 1 minute: bees have a delousing behavior, which helps the Varroa mites to drop off. The icing sugar is sieved over a sieve which makes it possible to retain the Varroa mites and then count them. The result is given as the number of mites per 10 g of bees (approximately 100 bees) and can be expressed as a %. This rate is indicative of the Varroa burden in the colony. […] A moderate rate is between 2 and 5 and, in this case, treatment of the colonies must be scheduled. Finally, a rate greater than 5, requires emergency treatment of the colony. Our tests give a result of around 2% for worker bees. The molecules tested, their concentration in solution and their annual overall doses are listed below: • 1. […] The concentration of the complex in the syrup: 1.5×10^-7 mol/L. Overall and annual product dose: 2 mg of complex per colony • 2. […] The concentration of the complex in syrup: 3.0×10^-7 mol/L. Overall and annual product dose: 2 mg of complex per colony • 3. […] Overall and annual product dose: 2 mg of complex per colony • 4. LiCH3COO·H2O as a positive control, abbreviated as Li-Ac • The feeding is carried out with 2000 g of candy containing 0.8 mg of positive control product, then 6 to 7 L of syrup containing 0.2 mg/L of positive control product. The concentration of the product in syrup: 2.36×10^-6 mol/L that is 1.67×10^-5 g/L. Overall and annual product dose: 2 mg of product per colony

Varroa destructor [2] = assay: 2nd test in the hives: degree of infestation of bees with Varroa; format: in vivo; settings: for Degree of infestation with Varroa: 100 = 2.32 mite/10 g of bees; for Degree of infestation with Varroa, change versus batch I: value in brackets
Text: The assessment consists in counting the number of Varroa on a sample of adult bees. The value from this count is used as an index for monitoring the level of parasitism in the colony. The method uses icing sugar and a “shaker” jar made of transparent glass with a capacity of 1 kg. The cover is a mesh made of galvanized steel of the type placed at the bottom of the hive, with a mesh size of 3 mm. The mesh allows Varroa mites to pass through but retains the honey bees. The method is implemented according to the following steps: 40 to 50 g of honey bees are collected in the jar (approximately 400 bees), 100 g of icing sugar is added and the shaker jar is rolled for 1 minute so as to cover every bee in icing sugar. The icing sugar then makes it possible to separate the Varroa mites from the body of the host bee so that they drop off. Leave to rest for 1 minute: bees have a delousing behavior, which helps the Varroa mites to drop off. The icing sugar is sieved over a sieve which makes it possible to retain the Varroa mites and then count them. The result is given as the number of mites per 10 g of bees (approximately 100 bees) and can be expressed as a %. This rate is indicative of the Varroa burden in the colony. […] A moderate rate is between 2 and 5 and, in this case, treatment of the colonies must be scheduled. Finally, a rate greater than 5, requires emergency treatment of the colony. Our tests give a result of around 2% for worker bees. The 2nd test was performed in the same apiary the following year. Feeding with the complex of the invention took place in spring. The biological tests were monitored up to the month of September. The molecules tested, their concentration in solution and their annual overall doses are listed below: • 1. […] The concentration of the complex in syrup: 1.5×10^-7 mol/L. Overall product dose: 2 mg/colony • 2. […] Overall complex dose: 6 mg/colony • 4. LiCH3COO·H2O for comparison, abbreviated as Li-Ac • The feeding is carried out with 2000 g of candy containing 0.8 mg of product then 6 to 7 L of syrup containing 0.2 mg/L of product. The concentration of product in the syrup: 2.36×10^-6 mol/L that is 1.67×10^-5 g/L. Overall product dose: 2 mg/colony

[3] = tested on: healthy Madin-Darby canine kidney epithelial cells of the MDCK line; assay: Resazurin cell proliferation test, MDCK cells; format: cell-based; settings: healthy cells; IC50 equal to and greater than 100 μM considered no activity
Text: For cell culture, human cervical epithelial cells of the HeLa line, human epithelial pancreatic adenocarcinoma cells of the BxPC-3 line and healthy Madin-Darby canine kidney epithelial cells of the MDCK line were used in this study. The Resazurin cell proliferation test was applied according to the literature (S. Anoopkumar-Dukie, J. B. Carey, T. Conere, E. O'Sullivan, F. N. van Pelt, A. Allshire, Br J Radiol 2005, 78, 945, DOI: 10.1259/bjr/54004230). As an indicator of the effectiveness of the experimental compounds on cell proliferation, the median inhibitory concentration (IC50) was used. The lower the IC50 value, the higher the activity (in this case, the cytotoxicity).
Five formula I complexes were tested in this study in comparison to two reference anti-cancer compounds (“Cisplatin” and Doxorubicin complex).

SMILES	Degree of infestation with Varroa (Varroa destructor [1])	Degree of infestation with Varroa, change versus batch I (Varroa destructor [1])	Degree of infestation with Varroa (Varroa destructor [2]; overall dose 2 mg/hive)	Degree of infestation with Varroa, change versus batch I (Varroa destructor [2]; overall dose 2 mg/hive)	Protective effect against the infestation of bees by Varroa destructor (Varroa destructor [1]; 1st test, 2 mg per colony, relative to untreated batch I, Li complex at a lithium concentration almost 4 times lower than Li—Ac)	Degree of infestation with Varroa (Varroa destructor [2]; overall dose 6 mg/hive)	Degree of infestation with Varroa, change versus batch I (Varroa destructor [2]; overall dose 6 mg/hive)	IC50, MDCK [3]	IC50 [3]
CC(=O)[O-].[Li+] [Li—Ac, LiCH3COO·H2O, reference compound]	58.4 % relative to batch I	−41.6%	69.0 % relative to batch I	−31%	–	–	–	–	–
O.O.O.O.O.O.O=C([O-])CN(CCN(CC(=O)[O-])CC(=O)[O-])CC(=O)[O-].[Li+].[Li+].[O]=[Mo+]12[O][Mo+]1(=[O])[O]2 [Li—Mo2O4-EDTA, Li2[Mo2O4 (EDTA)]·6H2O]	57.3 % relative to batch I	−42.7%	52.6 % relative to batch I	−47.4%	protective capacity comparable to that of the lithium acetate	38.4 % relative to batch I	−62.6%	Inactive	–
O.O.O.O.O.O=C([O-])CN(CCN(CC(=O)[O-])CC(=O)[O-])CC(=O)[O-].[Na+].[Na+].[O]=[Mo+]12[O][Mo+]1(=[O])[O]2 [Na—Mo2O4-EDTA, Na2[Mo2O4 (EDTA)]·5H2O]	86.5 % relative to batch I	−13.5%	–	–	–	–	–	Inactive	–
O=C([O-])CN(CCN(CC(=O)[O-])CC(=O)[O-])CC(=O)[O-].[O]=[Mo+]12[O][Mo+]1(=[O])[O]2.c1ccc([P+](c2ccccc2)(c2ccccc2)c2ccccc2)cc1.c1ccc([P+](c2ccccc2)(c2ccccc2)c2ccccc2)cc1 [PPh4—Mo2O4-EDTA, (PPh4)2[Mo2O4 (EDTA)]·2.5H2O]	78.7 % relative to batch I	−21.3%	60.8 % relative to batch I	−39.2%	–	–	–	–	60.7 ± 12.1 µM
